According to patent US9266883B2, “Ring-fused bicyclic pyridyl derivatives as FGFR4 inhibitors” (Novartis AG, priority 2013, dated 2016):
pIC50: −log10 of the molar value. Like-named read-outs stand apart in the source and are kept apart here.

Key:
[1] = target: Tel-FGFR4 (Homo sapiens (Human), UniProt P22455); test: In vitro cellular kinase assay for FGFR4 (BaF3-Tel-FGFR4 cells, MSD capture ELISA of tyrosine phosphorylation); format: cell-based
[2] = target: FGFR4 (GST-FGFR4(388-802)) (Homo sapiens (Human), UniProt P22455); test: In-vitro biochemical kinase assay for FGFR4 (Caliper microfluidic mobility shift)
[3] = BaF3-Tel-FGFR4 cells, 1 hour incubation, read-out: Cellular BaF3 FGFR4 IC50
[4] = read-out: Biochemical FGFR4 IC50
[5] = Cellular BaF3 FGFR4 assay, read-out: Cellular IC50
[6] = biochemical FGFR4 assay, read-out: Biochemical IC50
[7] = measured and considered as outlier values, not included in the table or list, read-out: IC50 in the cellular BaF3 FGFR4 assay, outlier values

FGFR4 (GST-FGFR4(388-802)), sequence (P22455 388-802): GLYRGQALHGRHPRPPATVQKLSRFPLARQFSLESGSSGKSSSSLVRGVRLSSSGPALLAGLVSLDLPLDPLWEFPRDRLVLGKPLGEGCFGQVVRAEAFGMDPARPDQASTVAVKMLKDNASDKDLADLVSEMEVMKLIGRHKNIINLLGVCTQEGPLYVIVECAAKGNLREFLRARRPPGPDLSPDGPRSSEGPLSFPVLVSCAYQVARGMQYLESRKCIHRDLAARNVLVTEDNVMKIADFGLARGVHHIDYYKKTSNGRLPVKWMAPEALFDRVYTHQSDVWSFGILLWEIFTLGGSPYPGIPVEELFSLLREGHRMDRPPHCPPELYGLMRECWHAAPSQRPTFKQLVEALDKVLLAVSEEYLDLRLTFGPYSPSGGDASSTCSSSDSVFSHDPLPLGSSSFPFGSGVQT
Tel-FGFR4, sequence (P22455 other isoform, or with tags, fused parts or gaps): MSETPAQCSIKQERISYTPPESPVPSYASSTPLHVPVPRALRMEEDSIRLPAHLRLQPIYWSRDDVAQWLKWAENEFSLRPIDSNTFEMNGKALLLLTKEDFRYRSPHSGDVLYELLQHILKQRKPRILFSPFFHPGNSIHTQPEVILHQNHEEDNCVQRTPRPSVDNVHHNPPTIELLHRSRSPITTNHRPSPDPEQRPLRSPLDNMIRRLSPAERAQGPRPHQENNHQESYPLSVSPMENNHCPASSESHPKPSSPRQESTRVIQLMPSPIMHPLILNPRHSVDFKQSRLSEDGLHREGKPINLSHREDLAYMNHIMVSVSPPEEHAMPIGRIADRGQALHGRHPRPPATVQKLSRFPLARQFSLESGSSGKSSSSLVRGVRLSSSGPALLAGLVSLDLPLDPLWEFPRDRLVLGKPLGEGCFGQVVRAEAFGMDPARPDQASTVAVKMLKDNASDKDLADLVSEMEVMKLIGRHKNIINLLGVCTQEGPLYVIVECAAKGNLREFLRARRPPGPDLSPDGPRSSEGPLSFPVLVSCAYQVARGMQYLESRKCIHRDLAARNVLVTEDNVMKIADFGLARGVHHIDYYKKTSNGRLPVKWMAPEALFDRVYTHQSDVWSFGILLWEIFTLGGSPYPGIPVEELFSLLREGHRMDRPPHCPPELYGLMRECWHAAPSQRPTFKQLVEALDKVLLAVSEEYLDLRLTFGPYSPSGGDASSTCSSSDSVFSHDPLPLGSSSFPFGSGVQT

pIC50 [1, 5]	pIC50 [2, 6]	pIC50 [1, 7]	Structure (SMILES)	pIC50 [1, 3]	pIC50 [2, 4]
8.23	10.00		COCCNc1cc(NC(=O)N2CCCc3cc(CN4CCNC(C)(C)C4=O)c(C=O)nc32)ncc1C#N [N-(5-cyano-4-((2-methoxyethyl)amino)pyridin-2-yl)-6-((3,3-dimethyl-2-oxopiperazin-1-yl)methyl)-7-formyl-3,4-dihydro-1,8-naphthyridine-1(2H)-carboxamide]		
8.00	8.68		CC(C)Oc1cc(NC(=O)N2CCCc3cc(CN4CCNCC4=O)c(C=O)nc32)ncc1C#N [N-(5-cyano-4-isopropoxypyridin-2-yl)-7-formyl-6-((2-oxopiperazin-1-yl)methyl)-3,4-dihydro-1,8-naphthyridine-1(2H)-carboxamide]		
7.87	8.32		N#Cc1cnc(NC(=O)N2CCCc3cc(CN4CC[C@H](O)C4=O)c(C=O)nc32)cc1OCC(F)F [(S)N-(5-cyano-4-(2,2-difluoroethoxyl)pyridin-2-yl)-7-formyl-6-((3-hydroxy-2-oxopyrrolidin-1-yl)methyl)-3,4-dihydro-1,8-naphthyridine-1(2H)-carboxamide]		
7.99	8.32		COc1cc(NC(=O)N2CCCc3cc(CN4CCN(C)CC4=O)c(C=O)nc32)ncc1C#N [N-(5-cyano-4-methoxypyridin-2-yl)-7-formyl-6-((4-methyl-2-oxopiperazin-1-yl)methyl)-3,4-dihydro-1,8-naphthyridine-1(2H)-carboxamide]		
8.26	9.00		N#Cc1cnc(NC(=O)N2CCCc3cc(C(F)F)c(C=O)nc32)cc1NCCO [N-(5-cyano-4-((2-hydroxyethyl)amino)pyridin-2-yl)-6-(difluoromethyl)-7-formyl-3,4-dihydro-1,8-naphthyridine-1(2H)-carboxamide]		
8.15	8.62		CN1CCN(Cc2cc3c(nc2C=O)N(C(=O)Nc2cc(OCCF)c(C#N)cn2)CCC3)C(=O)C1 [N-(5-cyano-4-(2-fluoroethoxyl)pyridin-2-yl)-7-formyl-6-((4-methyl-2-oxopiperazin-1-yl)methyl)-3,4-dihydro-1,8-naphthyridine-1(2H)-carboxamide]		
7.73	9.05	< 5.52	CCC(=O)N(C)Cc1cc2c(nc1C=O)N(C(=O)Nc1cc(OC(C)C)c(C#N)cn1)CCC2 [N-(5-cyano-4-isopropoxypyridin-2-yl)-7-formyl-6-((N-methylpropionamido)methyl)-3,4-dihydro-1,8-naphthyridine-1(2H)-carboxamide]		
7.94	8.74		CN1CCN(Cc2cc3c(nc2C=O)N(C(=O)Nc2cc(NC(C)(C)C)c(C#N)cn2)CCC3)C(=O)C1 [N-(4-(tert-butylamino)-5-cyanopyridin-2-yl)-7-formyl-6-((4-methyl-2-oxopiperazin-1-yl)methyl)-3,4-dihydro-1,8-naphthyridine-1(2H)-carboxamide]		
8.24	8.60		COC[C@H](C)Nc1cc(NC(=O)N2CCCc3cc(CN4CCOCC4=O)c(C=O)nc32)ncc1C#N [(S)-N-(5-cyano-4-((1-methoxypropan-2-yl)amino)pyridin-2-yl)-7-formyl-6-((3-oxomorpholino)methyl)-3,4-dihydro-1,8-naphthyridine-1(2H)-carboxamide]		
8.15	8.89		COCCNc1cc(NC(=O)N2CCCc3cc(CN4CCN(C)C(=O)C4)c(C=O)nc32)ncc1C#N [N-(5-cyano-4-((2-methoxyethyl)amino)pyridin-2-yl)-7-formyl-6-((4-methyl-3-oxopiperazin-1-yl)methyl)-3,4-dihydro-1,8-naphthyridine-1(2H)-carboxamide]		
8.44	8.96		COCCNc1cc(NC(=O)N2CCCc3cc(CN4CCCC4=O)c(C=O)nc32)ncc1C#N [N-(5-cyano-4-((2-methoxyethyl)amino)pyridin-2-yl)-7-formyl-6-((2-oxopyrrolidin-1-yl)methyl)-3,4-dihydro-1,8-naphthyridine-1(2H)-carboxamide]		
7.98	9.10		CCN(Cc1cc2c(nc1C=O)N(C(=O)Nc1cc(NC(C)C)c(C#N)cn1)CCC2)C(=O)CN(C)C [N-(5-cyano-4-(isopropylamino)pyridin-2-yl)-6-((2-(dimethylamino)-N-ethylacetamido)methyl)-7-formyl-3,4-dihydro-1,8-naphthyridine-1(2H)-carboxamide]		
7.95	9.70		CC(C)Oc1cc(NC(=O)N2CCCc3cc(CN4C[C@@H](N(C)C)CC4=O)c(C=O)nc32)ncc1C#N [(S)-N-(5-cyano-4-isopropoxypyridin-2-yl)-6-((4-(dimethylamino)-2-oxopyrrolidin-1-yl)methyl)-7-formyl-3,4-dihydro-1,8-naphthyridine-1(2H)-carboxamide]		

Further lines, the molecule ahead of its results:

Structure (SMILES)	pIC50 [1, 5]	pIC50 [2, 6]	pIC50 [1, 7]	pIC50 [1, 3]	pIC50 [2, 4]
COCCNc1cc(NC(=O)N2CCCc3cc(C4CCN(CC(F)F)CC4)c(C=O)nc32)ncc1C#N [Example 267, N-(5-cyano-4-((2-methoxyethyl)amino)pyridin-2-yl)-6-(1-(2,2-difluoroethyl)piperidin-4-yl)-7-formyl-3,4-dihydro-1,8-naphthyridine-1(2H)-carboxamide]				7.78	8.92
CN1CCC2(CCN(c3cc(NC(=O)N4CCCc5cc(CO)c(C=O)nc54)ncc3C#N)CC2)C1 [Example 45, N-(5-cyano-4-(2-methyl-2,8-diazaspiro[4.5]decan-8-yl)pyridin-2-yl)-7-formyl-6-(hydroxymethyl)-3,4-dihydro-1,8-naphthyridine-1(2H)-carboxamide]				7.17	7.68
CC(C)(O)CNc1cc(NC(=O)N2CCCc3cc(CO)c(C=O)nc32)ncc1C#N [Example 86, N-(5-cyano-4-((2-hydroxy-2-methylpropyl)amino)pyridin-2-yl)-7-formyl-6-(hydroxymethyl)-3,4-dihydro-1,8-naphthyridine-1(2H)-carboxamide]				7.92	8.31
CC(C)Oc1cc(NC(=O)N2c3nc(C=O)c(Br)cc3CC[C@@H]2C)ncc1C#N [(S)-6-bromo-N-(5-cyano-4-isopropoxypyridin-2-yl)-7-formyl-2-methyl-3,4-dihydro-1,8-naphthyridine-1(2H)-carboxamide]	7.02	8.48			
N#Cc1cnc(NC(=O)N2CCCc3cc(CO)c(C=O)nc32)cc1OCC1CCCO1 (racemic) [Example 43, N-(5-cyano-4-((tetrahydrofuran-2-yl)methoxy)pyridin-2-yl)-7-formyl-6-(hydroxymethyl)-3,4-dihydro-1,8-naphthyridine-1(2H)-carboxamide]				8.12	8.28
COCCNc1cc(NC(=O)N2CCCc3cc(CN4CC[N+](C)([O-])CC4=O)c(C=O)nc32)ncc1C#N (centres unmarked) [Example 222, 4-((8-((5-cyano-4-((2-methoxyethyl)amino)pyridin-2-yl)carbamoyl)-2-formyl-5,6,7,8-tetrahydro-1,8-naphthyridin-3-yl)methyl)-1-methyl-3-oxopiperazine 1-oxide]				7.38	> 8.32
COC[C@H](C)Nc1cc(NC(=O)N2CCCc3cc(CN4CCCC4=O)c(C=O)nc32)ncc1C#N [(S)-N-(5-cyano-4-((1-methoxypropan-2-yl)amino)pyridin-2-yl)-7-formyl-6-((2-oxopyrrolidin-1-yl)methyl)-3,4-dihydro-1,8-naphthyridine-1(2H)-carboxamide]	8.31	8.72			
COC[C@@H](C)Oc1cc(NC(=O)N2CCCc3cc(CN(C)C(C)=O)c(C=O)nc32)ncc1C#N [(R)-N-(5-cyano-4-((1-methoxypropan-2-yl)oxy)pyridin-2-yl)-7-formyl-6-((N-methylacetamido)methyl)-3,4-dihydro-1,8-naphthyridine-1(2H)-carboxamide]	8.43	9.30	6.76		
COC[C@@H](C)Oc1nc(NC(=O)N2CCCc3cc(CO)c(C=O)nc32)ncc1Cl [Example 59, (R)-N-(5-chloro-4-((1-methoxypropan-2-yl)oxy)pyrimidin-2-yl)-7-formyl-6-(hydroxymethyl)-3,4-dihydro-1,8-naphthyridine-1(2H)-carboxamide]				6.98	7.32
COCCNc1cc(NC(=O)N2CCCc3cc(-c4cn(C)nc4C)c(C=O)nc32)ncc1C#N [Example 250, N-(5-cyano-4-((2-methoxyethyl)amino)pyridin-2-yl)-6-(1,3-dimethyl-1H-pyrazol-4-yl)-7-formyl-3,4-dihydro-1,8-naphthyridine-1(2H)-carboxamide]				7.84	8.17
COCCNc1cc(NC(=O)N2CCCc3cc(CN4CC[C@@H](N(C)C)C4=O)c(C=O)nc32)ncc1C#N [(R)-N-(5-cyano-4-((2-methoxyethyl)amino)pyridin-2-yl)-6-((3-(dimethylamino)-2-oxopyrrolidin-1-yl)methyl)-7-formyl-3,4-dihydro-1,8-naphthyridine-1(2H)-carboxamide]	8.41	8.80			
CCCCC(O)c1ccc(NC(=O)N2CCCc3ccc(C=O)nc32)nc1 (racemic) [Example 22, 7-formyl-N-(5-(1-hydroxypentyl)pyridin-2-yl)-3,4-dihydro-1,8-naphthyridine-1(2H)-carboxamide]				5.58	6.64
N#Cc1cnc(NC(=O)N2CCCc3cc(CO)c(C=O)nc32)cc1OCC(O)CCCl (racemic) [Example 60, N-(4-(4-chloro-2-hydroxybutoxy)-5-cyanopyridin-2-yl)-7-formyl-6-(hydroxymethyl)-3,4-dihydro-1,8-naphthyridine-1(2H)-carboxamide]				7.59	9.10
CC(C)Oc1cc(NC(=O)N2c3nc(C=O)c(Br)cc3CC[C@H]2C)ncc1C#N [(R)-6-bromo-N-(5-cyano-4-isopropoxypyridin-2-yl)-7-formyl-2-methyl-3,4-dihydro-1,8-naphthyridine-1(2H)-carboxamide]	6.77	7.68			
